EC50 data for 25 molecules are collected here from patent US12421242B2, “Substituted tetrahydropyrrolo-pyridinone compounds and their use in treating medical conditions” (Karuna Therapeutics, Inc., priority 2022, dated 2025).

For orientation: EC50 means the midpoint of the concentration-response curve. Read a high EC50 as a need for much substance.

One assay deals with T1, hM4 receptors (Homo sapiens, UniProt P08173).
T1 construct: expressed in transfected cells; host or cells: CHO cells
T1 sequence (P08173 1-479): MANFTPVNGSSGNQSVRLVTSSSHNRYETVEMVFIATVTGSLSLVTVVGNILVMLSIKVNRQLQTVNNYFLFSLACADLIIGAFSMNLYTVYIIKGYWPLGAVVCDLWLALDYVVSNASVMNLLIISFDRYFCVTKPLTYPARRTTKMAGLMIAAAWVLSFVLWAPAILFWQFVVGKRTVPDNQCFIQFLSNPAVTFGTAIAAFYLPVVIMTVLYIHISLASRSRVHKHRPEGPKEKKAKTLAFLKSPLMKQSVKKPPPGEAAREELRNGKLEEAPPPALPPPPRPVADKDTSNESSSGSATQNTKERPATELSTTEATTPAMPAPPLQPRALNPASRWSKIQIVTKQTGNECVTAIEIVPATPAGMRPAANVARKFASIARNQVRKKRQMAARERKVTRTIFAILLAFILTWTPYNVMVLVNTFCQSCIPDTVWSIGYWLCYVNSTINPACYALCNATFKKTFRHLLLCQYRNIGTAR
The assay is described as follows: Human M4 PAM pERK assay. It counts as cell-based. To be noted: PAM mode. The method in brief: (§1)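 CHO cells expressing hM4 or rM4 were serum-starved 4 h, then given compound (ten-point curve, 10 μM top, duplicate) with an EC20 of acetylcholine (10 nM final) for 5 min at 37° C. Phospho-ERK in lysates was detected by TR-FRET.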

The target of the next assay is T2, rM4 receptors (Rattus norvegicus, UniProt P08485).
T2 construct: expressed in transfected cells; host or cells: CHO cells
T2 sequence (P08485 1-478): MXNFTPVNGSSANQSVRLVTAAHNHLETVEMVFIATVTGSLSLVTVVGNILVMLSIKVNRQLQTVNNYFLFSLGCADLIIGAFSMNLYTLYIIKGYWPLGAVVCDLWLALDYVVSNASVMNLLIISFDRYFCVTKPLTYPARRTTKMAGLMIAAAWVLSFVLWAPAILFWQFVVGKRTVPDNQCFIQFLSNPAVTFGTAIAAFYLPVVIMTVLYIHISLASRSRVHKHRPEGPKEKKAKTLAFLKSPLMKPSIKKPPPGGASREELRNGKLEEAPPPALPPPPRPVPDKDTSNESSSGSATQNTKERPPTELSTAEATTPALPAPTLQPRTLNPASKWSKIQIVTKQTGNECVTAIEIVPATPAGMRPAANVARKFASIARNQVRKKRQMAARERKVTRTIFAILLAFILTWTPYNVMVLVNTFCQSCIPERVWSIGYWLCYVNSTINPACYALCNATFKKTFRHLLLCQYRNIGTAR
Description: Rat M4 PAM pERK assay. The assay is classed as cell-based. To be noted: PAM mode. Put shortly:
as §1

The next assay deals with T3, human M4 receptor (Homo sapiens, UniProt P08173).
T3 construct: expressed in transfected cells
T3 sequence (P08173 1-479): T1 sequence (P08173 1-479)
Description: M4 GTPγS PAM assay. The assay is classed as biochemical. The note with it: CHO-K1 membranes expressing human M4, with EC20 acetylcholine (40 nM). The protocol: The M4 GTPγS PAM method was used. Membranes were prepared for GTPgS binding assays from CHO-K1 cells stably expressing human M4 receptor. Briefly, cells were grown in 5-layer cell culture flasks. Cells were washed with 50 mL of PBS and then dissociated with 0.05% trypsin. Dissociated cells were then collected by centrifugation at 650×g for 8 minutes at 4° C. Pellets were washed again in PBS by centrifugation and resuspended in 30 mL of 20 mM HEPES, 10 mM EDTA, pH 7.4. After sitting on ice for 30 min, membranes were collected by centrifugation at 50000×g for 15′ at 4° C., resuspended in 30 mL of 20 mM HEPES, 0.1 mM EDTA, pH 7.4 and collected again by centrifugation. Pellets were then washed twice by centrifugation in 30 mL of 20 mM HEPES, pH 7.4, and stored at −80° C. until the day of the assay. On the day of the assay, pellets were thawed on ice and resuspended in 1 mL of 20 mM HEPES, pH 7.4, 10 mM MgCl2, 100 mM NaCl using dounce homogenization. Membrane protein concentration is determined by BCA protein assay (Promega, Madison, WI) according to Promega guidelines.
On the day of the assay, serial dilutions of test PAM compounds were brought up in assay buffer (20 mM HEPES, 10 mM MgCl2, 100 mM NaCl) at 4× final assay concentration. […] of membrane homogenates (containing […] of membrane protein) were prepared in assay buffer supplemented with GDP at 4× final assay concentration (final assay concentration of GDP is 5 uM for M2 and 0.1 uM for M4) and dispensed into 96 well polypropylene, U-bottom Greiner plates. […] of vehicle or test PAM compound at 4× of final assay concentration diluted in the assay buffer were added to membrane and plates are incubated for 10-15 minutes at room temperature with gentle shaking. Then, […] of EC20 acetylcholine in assay buffer at 4× final assay concentration was added to assay plates (EC20 final assay concentrations was 40 nM for human M4).
Plates were then incubated, with shaking, for an additional 10-15 minutes. 25 mL of 0.4 nM ^35S-GTP (Perkin Elmer, Waltham, MA) in assay buffer was added to assay mixtures. The binding reaction is left on the shaker for 1 hour at room temperature. Membranes in assay reactions were then transferred to GF/C filter plates (Unifilter, Perkin Elmer) and washed three times using a FilterMate Harvester (Perkin Elmer) with cold assay buffer containing no GDP. Filter plates were then dried at 40° C. overnight followed by the addition of […] of Beta Plate Scintillation liquid. Plates are top and bottom sealed before being read on TopCount scintillation counter (Perkin Elmer, Waltham, MA).

Bounds are passed on as bounds.

Take `Cc1coc(C(=O)N2Cc3c(C)c(Cl)c(=O)n(C)c3C2)n1` [Compound I-22]: the EC50 was 100 to 500 nM at hM4 receptors, over 2000 nM at rM4 receptors and 500 to 2000 nM at human M4 receptor.
The matching figures for `Cc1c2c(n(C)c(=O)c1Cl)CN(C(=O)c1cn3c(n1)CCCC3)C2` [Compound I-24]: 500 to 2000 nM, over 2000 nM and over 2000 nM.
The matching figures for `Cc1c2c(n(C)c(=O)c1Cl)CN(C(=O)c1csc(C(F)(F)F)n1)C2` [Compound I-26]: 100 to 500 nM, over 2000 nM and over 2000 nM.
For `Cc1c2c(n(C)c(=O)c1Cl)CN(C(=O)c1cnc(CC3CC3)s1)C2` [Compound I-28] the same measures were under 100 nM, 500 to 2000 nM and 100 to 500 nM.
For the molecule `Cc1c2c(n(C)c(=O)c1Cl)CN(C(=O)c1cnc(C(F)(F)F)s1)C2` [Compound I-29], the 50% effective concentration (EC50) at hM4 receptors is under 100 nM; on rM4 receptors, 500 to 2000 nM; at human M4 receptor it was 500 to 2000 nM.
As for `Cc1c2c(n(C)c(=O)c1Cl)CN(C(=O)c1cc3n(n1)CCCC3)C2` [Compound I-32], the 50% effective concentration (EC50) on hM4 receptors was 100 to 500 nM; on rM4 receptors, over 2000 nM; on human M4 receptor, 500 to 2000 nM.
Take `Cc1c2c(n(C)c(=O)c1Cl)CN(C(=O)c1cnc(C(F)F)s1)C2` [Compound I-36]: the EC50 on hM4 receptors was under 100 nM; at rM4 receptors, 500 to 2000 nM; on human M4 receptor, 500 to 2000 nM.
With `Cc1c2c(n(C)c(=O)c1Cl)CN(C(=O)c1cccc(C(F)(F)F)c1)C2` [Compound I-40], the EC50 was 500 to 2000 nM at hM4 receptors, over 2000 nM at rM4 receptors and over 2000 nM at human M4 receptor.
In the case of `Cc1c2c(n(C)c(=O)c1Cl)CN(C(=O)c1ccc(C(F)(F)F)cc1)C2` [Compound I-41], the EC50 at hM4 receptors was in the range of 100 to 500 nM; on rM4 receptors, 500 to 2000 nM; at human M4 receptor, 100 to 500 nM.
On to `Cc1c2c(n(C)c(=O)c1Cl)CN(C(=O)c1ccnc(C(F)(F)F)c1)C2` [Compound I-42], for which the EC50 on hM4 receptors was 500 to 2000 nM; at rM4 receptors, over 2000 nM; at human M4 receptor, over 2000 nM.
Consider `Cc1c2c(n(C)c(=O)c1Cl)CN(C(=O)c1ccc(C(F)(F)F)nc1)C2` [Compound I-44], for which the values for the EC50 on hM4 receptors, at rM4 receptors and at human M4 receptor were 100 to 500 nM, 500 to 2000 nM and under 100 nM, respectively.
For `Cc1c2c(n(C)c(=O)c1Cl)CN(C(=O)c1ccc(C(F)(F)F)cn1)C2` [Compound I-45] the same measures were 100 to 500 nM, over 2000 nM and over 2000 nM.
The matching figures for `Cc1c2c(n(C)c(=O)c1Cl)CN(C(=O)c1ccc3nc(C(F)(F)F)sc3c1)C2` [Compound I-49]: 100 to 500 nM, 500 to 2000 nM and 500 to 2000 nM.
For `Cc1c2c(n(C)c(=O)c1Cl)CN(C(=O)c1ccc3nc(C4CC4)sc3c1)C2` [Compound I-52, 3-Chloro-6-(2-cyclopropylbenzo[d]thiazole-6-carbonyl)-1,4-dimethyl-1,5,6,7-tetrahydro-2H-pyrrolo[3,4-b]pyridin-2-one] the same measures were 100 to 500 nM, 100 to 500 nM and 500 to 2000 nM.
For `COC(C)(C)Cn1cc(C(=O)N2Cc3c(C)c(Cl)c(=O)n(C)c3C2)cn1` [Compound I-62], the EC50 on hM4 receptors is over 2000 nM; on rM4 receptors, over 2000 nM; on human M4 receptor it was 500 to 2000 nM.
For the molecule `COCCn1cc(C(=O)N2Cc3c(C)c(Cl)c(=O)n(C)c3C2)cn1` [Compound I-63], the EC50 on hM4 receptors, on rM4 receptors and on human M4 receptor was over 2000 nM in each case.
Turning to `Cc1c2c(n(C)c(=O)c1Cl)CN(C(=O)c1cnc(CC3CC3(F)F)s1)C2` (stereo not drawn) [Compound I-66], the EC50 at hM4 receptors was under 100 nM; at rM4 receptors, over 2000 nM; on human M4 receptor it was 500 to 2000 nM.
For `Cc1c2c(n(C)c(=O)c1Cl)CN(C(=O)c1cnc(C(F)(F)C3CC3)s1)C2` [Compound I-67, 3-Chloro-6-(2-(cyclopropyldifluoromethyl)thiazole-5-carbonyl)-1,4-dimethyl-1,5,6,7-tetrahydro-2H-pyrrolo[3,4-b]pyridin-2-one] the same measures were under 100 nM, 500 to 2000 nM and 100 to 500 nM.
For `Cc1c2c(n(CC(F)(F)F)c(=O)c1Cl)CN(C(=O)c1cnc(CC3CC3)s1)C2` [Compound I-71] the same measures were 500 to 2000 nM, over 2000 nM and over 2000 nM.
Turning to `Cc1c2c(n(CC(F)(F)F)c(=O)c1Cl)CN(C(=O)c1ccc3nc(C4CC4)sc3c1)C2` [Compound I-72], the EC50 on hM4 receptors, on rM4 receptors and at human M4 receptor was 100 to 500 nM each time.
For the molecule `COc1c2c(n(C)c(=O)c1Cl)CN(C(=O)c1cnn(C(F)(F)F)c1)C2C` (stereo not drawn) [Compound I-73, 3-Chloro-4-methoxy-1,5-dimethyl-6-(1-(trifluoromethyl)-1H-pyrazole-4-carbonyl)-1,5,6,7-tetrahydro-2H-pyrrolo[3,4-b]pyridin-2-one], the results for the EC50 at hM4 receptors, at rM4 receptors and on human M4 receptor were 100 to 500 nM, 500 to 2000 nM and 100 to 500 nM, respectively.
In the case of `COc1cc(=O)n(C)c2c1C(C)N(C(=O)c1cnn(C(F)(F)F)c1)C2` (stereo not drawn) [Compound I-79, 4-Methoxy-1,5-dimethyl-6-(1-(trifluoromethyl)-1H-pyrazole-4-carbonyl)-1,5,6,7-tetrahydro-2H-pyrrolo[3,4-b]pyridin-2-one], the half-maximal effective concentration (EC50) was 500 to 2000 nM at hM4 receptors, over 2000 nM at rM4 receptors and 500 to 2000 nM at human M4 receptor.
Turning to `Cc1c(OC(F)F)c2c(n(C)c1=O)CN(C(=O)c1cnn(C(F)(F)F)c1)C2` [Compound I-89, 4-(Difluoromethoxy)-1,3-dimethyl-6-(1-(trifluoromethyl)-1H-pyrazole-4-carbonyl)-1,5,6,7-tetrahydro-2H-pyrrolo[3,4-b]pyridin-2-one], the EC50 is 100 to 500 nM on hM4 receptors, over 2000 nM on rM4 receptors and 500 to 2000 nM on human M4 receptor.
The matching figures for `CSc1c2c(n(C)c(=O)c1C)CN(C(=O)c1cnn(C(F)(F)F)c1)C2` [Compound I-90, 1,3-Dimethyl-4-(methylthio)-6-(1-(trifluoromethyl)-1H-pyrazole-4-carbonyl)-1,5,6,7-tetrahydro-2H-pyrrolo[3,4-b]pyridin-2-one]: 100 to 500 nM, over 2000 nM and 500 to 2000 nM.
The matching figures for `Cc1cc(=O)n(C)c2c1[C@H](C)N(C(=O)c1ccc3nc(C4CC4)sc3c1)C2` [Compound I-102]: over 2000 nM, over 2000 nM and over 2000 nM.
